Source: patent publication US20160201063A1, “EPIGENETIC REGULATORS OF FRATAXIN” (RANA THERAPEUTICS, INC., priority 2013, published 2016)
Where a name gives a salt, the structure may show the parent alone.

Experiments:
FXN mRNA [1] = assay: Screen of library of eighty epigenetic inhibitors in GM03816 FRDA diseased fibroblasts, FXN mRNA fold change; format: cell-based, human; conditions: for fold induction at 1 µM / fold induction at 5 µM: Homo sapiens, Fibroblast, 72 h; for fold induction at 1 µM: read-out: 3816 1 uM (FXN mRNA fold change); for fold induction at 5 µM: read-out: 3816 5 uM (FXN mRNA fold change)
Procedure: FXN RNA levels are indicated on the y-axis and the inhibitors used at both 1 μM and 5 μM are shown on the x-axis.
A screen of a library of eighty epigenetic inhibitors (Cayman Chemical) was performed in GM03816 FRDA fibroblasts to identify epigenetic regulators that upregulate FXN expression.

FXN mRNA [2] = assay: Screen of epigenetic inhibitors in GM0321 normal fibroblasts, FXN RNA levels; format: cell-based, human; conditions: for FXN mRNA fold change, 321B 1 uM / fold induction at 1 µM: 1 uM inhibitor; for fold induction at 1 µM / fold induction at 5 µM: Homo sapiens, Fibroblast, 72 h; for fold induction at 1 µM: read-out: FXN mRNA fold change, 321B 1 uM; for fold induction at 5 µM: read-out: FXN mRNA fold change, 321B 5 uM
[3] = GM03816 FRDA diseased fibroblasts, 1 uM inhibitor, 3 days of treatment
[4] = GM03816 FRDA diseased fibroblasts, 5 uM inhibitor, 3 days of treatment
[5] = GM0321 normal fibroblasts, 3 days of treatment
[6] = GM0321 normal fibroblasts, 5 uM inhibitor, 3 days of treatment

Compound | 3816 1 uM (FXN mRNA fold change) (FXN mRNA [1]; [3]) | 3816 5 uM (FXN mRNA fold change) (FXN mRNA [1]; [4]) | FXN mRNA fold change, 321B 1 uM (FXN mRNA [2]; [5]) | FXN mRNA fold change, 321B 5 uM (FXN mRNA [2]; [6]) | fold induction at 1 µM (FXN mRNA [1]; [3]) | fold induction at 5 µM (FXN mRNA [1]; [4]) | fold induction at 1 µM (FXN mRNA [2]; [5]) | fold induction at 5 µM (FXN mRNA [2]; [6]) | further results
CN1CCc2c(c3ccccc3n2Cc2ccc(C(=O)NO)cc2)C1 [Tubastatin A] | 0.9276 | 0.9192 | 0.8993 | 1.038 |  |  |  |  | 
COc1ccccc1S(=O)(=O)Nc1ccc2c(c1)CN(C)C(=O)N2 [PFI-1] | 0.9175 | 0.923 | 0.9577 | 0.9071 |  |  |  |  | 
O=C(O)CCNc1cc(N2CCc3ccccc3CC2)nc(-c2ccccn2)n1 [GSK-J1 (sodium salt)] | 0.8866 | 0.7892 | 0.9779 | 0.9423 |  |  |  |  | 
O=C(CCCCCCC(=O)NO)NO [Suberohydroxamic Acid] |  |  |  |  | 1.18 | 0.982 | 0.959 | 1.02 | 
Nc1ncnc2c1ncn2[C@@H]1O[C@H](CSCC[C@H](N)C(=O)O)[C@@H](O)[C@H]1O [S-Adenosylhomocysteine] |  |  |  |  | 1.07 | 0.886 | 0.975 | 0.619 | 
O=c1ncccn1[C@@H]1O[C@H](CO)[C@@H](O)[C@H]1O [Zebularine] |  |  |  |  | 1.07 | 1.09 | 1.07 | 1.03 | 
O=C(Nc1ccc2c(O)cc(S(=O)(=O)O)cc2c1)Nc1ccc2c(O)cc(S(=O)(=O)O)cc2c1 [AMI-1] | 0.5579 | 0.566 |  | 0.4073 |  |  |  |  | 
COc1ccc(Cn2ccc3ccc(C(=O)NO)cc32)cc1 [PCI 34051] | 1.084 | 1.209 | 0.9743 | 1.306 |  |  |  |  | 
O=C(Nc1ccc(Cl)cc1)C1CCCN(C(=O)c2cc(C(F)(F)F)cc(C(F)(F)F)c2)C1 (stereo not drawn) [CCG-100602] | 1.147 | 1.213 | 0.8325 | 0.9592 |  |  |  |  | 
COc1cc2c(NC3CCN(C)CC3)nc(N3CCCN(C)CC3)nc2cc1OCCCN(C)C [UNC0224, 7-[3-(Dimethylamino)propoxy]-2-(hexahydro-4-methyl-1H-1,4-diazepin-1-yl)-6-methoxy-N-(1-methyl-4-piperidinyl)-4-quinazolinamine, reference compound] |  |  |  |  | 0.958 | 0.656 | 0.876 | 0.875 | 
CCCC(CCC)C(=O)O [Valproic acid] |  |  |  |  | 0.901 | 1 | 1.26 | 0.847 | 
O=c1oc2c(O)c(O)cc3c(=O)oc4c(O)c(O)cc1c4c23 [Ellagic Acid] |  |  |  |  | 0.788 | 0.189 | 0.675 | 0.248 | 
CN(C)c1ccc(C(=O)NCCCCCC(=O)NO)cc1 [CAY10398] | 0.6921 | 0.2339 | 0.5049 | 0.2106 |  |  |  |  | 
NC(=O)c1cccc(N)c1 [3-amino Benzamide] | 1.289 | 1.357 | 1.089 | 1.365 |  |  |  |  | 
Cc1ccc(C(=O)Nc2ccc(S(=O)(=O)O)c3cc(S(=O)(=O)O)cc(S(=O)(=O)O)c23)cc1NC(=O)c1cccc(NC(=O)Nc2cccc(C(=O)Nc3cc(C(=O)Nc4ccc(S(=O)(=O)O)c5cc(S(=O)(=O)O)cc(S(=O)(=O)O)c45)ccc3C)c2)c1 [Suramin] |  |  |  |  |  |  |  |  | fold induction at 1 µM (FXN mRNA [1]): 0.954; fold induction at 5 µM (FXN mRNA [1]): 0.835; fold induction at 5 µM (FXN mRNA [2]): 0.772
O=C(O)CNC(=O)C(=O)O [N-Oxalylglycine] |  |  |  |  | 0.708 | 1.03 |  | 0.68 | 
O=C(O)c1ccc(O)c2ncccc12 [IOX1] | 1.272 | 0.8722 | 0.9479 | 0.7185 |  |  |  |  | 
CCCCCOc1ccc(/C=C\c2cccc(O)c2C(=O)O)cc1 [CAY10669] | 0.8709 | 1.074 | 0.7796 | 0.3094 |  |  |  |  | 
